Calls of active or inactive are those of the source. No rule for the calls is given here.
System: CCRIS mutagenicity, Ames/micronucleus/aberration tests
Assay: CCRIS mutagenicity studies
[1] = Test System: AMES SALMONELLA TYPHIMURIUM, Strain/Indicator: TA98, Metabolic Activation: NONE, Method: PREINCUBATION
[2] = Test System: AMES SALMONELLA TYPHIMURIUM, Strain/Indicator: TA98, Metabolic Activation: NONE, Method: STANDARD PLATE
[3] = Test System: AMES SALMONELLA TYPHIMURIUM, Strain/Indicator: TA100, Metabolic Activation: NONE, Method: STANDARD PLATE

For `Nc1ncn[nH]1`, which mutagenic call (Test System: AMES SALMONELLA TYPHIMURIUM, Strain/Indicator: TA97, Metabolic Activation: HAMSTER, LIVER, S-9, AROCLOR 1254 (10 OR 30%), Method: PREINCUBATION) is on record?
The mutagenic call was “inactive; negative”.

And the mutagenic call (Test System: AMES SALMONELLA TYPHIMURIUM, Strain/Indicator: TA97, Metabolic Activation: NONE, Method: PREINCUBATION)?
Its mutagenic call is “inactive; negative”.

And the mutagenic call (Test System: AMES SALMONELLA TYPHIMURIUM, Strain/Indicator: TA97, Metabolic Activation: RAT, LIVER, S-9, AROCLOR 1254 (10 OR 30%), Method: PREINCUBATION)?
Its mutagenic call is “inactive; negative”.

What about the mutagenic call (Test System: AMES SALMONELLA TYPHIMURIUM, Strain/Indicator: TA98, Metabolic Activation: HAMSTER, LIVER, S-9, AROCLOR 1254 (10 OR 30%), Method: PREINCUBATION) of the same compound?
The mutagenic call was “inactive; negative”.

What about the mutagenic call [1] of the same compound?
Its mutagenic call is “inactive; negative”.

What about the mutagenic call (Test System: AMES SALMONELLA TYPHIMURIUM, Strain/Indicator: TA98, Metabolic Activation: PROSTAGLANDIN H SYNTHASE, Method: PREINCUBATION) of the same compound?
The mutagenic call was “inactive; negative”.

And the mutagenic call (Test System: AMES SALMONELLA TYPHIMURIUM, Strain/Indicator: TA98, Metabolic Activation: RAT, LIVER, S-9, AROCLOR 1254 (10 OR 30%), Method: PREINCUBATION)?
Its mutagenic call is “inactive; negative”.

And the mutagenic call (Test System: AMES SALMONELLA TYPHIMURIUM, Strain/Indicator: TA100, Metabolic Activation: HAMSTER, LIVER, S-9, AROCLOR 1254 (10 OR 30%), Method: PREINCUBATION)?
The mutagenic call was “inactive; negative”.

And the mutagenic call (Test System: AMES SALMONELLA TYPHIMURIUM, Strain/Indicator: TA100, Metabolic Activation: NONE, Method: PREINCUBATION)?
The mutagenic call was “inactive; negative”.

And the mutagenic call (Test System: AMES SALMONELLA TYPHIMURIUM, Strain/Indicator: TA100, Metabolic Activation: RAT, LIVER, S-9, AROCLOR 1254 (10 OR 30%), Method: PREINCUBATION)?
Its mutagenic call is “inactive; negative”.

What about the mutagenic call (Test System: AMES SALMONELLA TYPHIMURIUM, Strain/Indicator: TA1535, Metabolic Activation: HAMSTER, LIVER, S-9, AROCLOR 1254 (10 OR 30%), Method: PREINCUBATION) of the same compound?
The mutagenic call was “inactive; negative”.

What about the mutagenic call (Test System: AMES SALMONELLA TYPHIMURIUM, Strain/Indicator: TA1535, Metabolic Activation: NONE, Method: PREINCUBATION) of the same compound?
Its mutagenic call is “inactive; negative”.

What about the mutagenic call (Test System: AMES SALMONELLA TYPHIMURIUM, Strain/Indicator: TA1535, Metabolic Activation: RAT, LIVER, S-9, AROCLOR 1254 (5 OR 10%), Method: PREINCUBATION) of the same compound?
The mutagenic call was “inactive; negative”.

And the mutagenic call (Test System: AMES SALMONELLA TYPHIMURIUM, Strain/Indicator: TA1535, Metabolic Activation: RAT, LIVER, S-9, AROCLOR 1254 (30%), Method: PREINCUBATION)?
The mutagenic call was “inactive; negative”.

And the mutagenic call (Test System: E. COLI, Strain/Indicator: WP2 UVRA, Metabolic Activation: HAMSTER, LIVER, S-9, AROCLOR 1254, Method: STANDARD PLATE)?
Its mutagenic call is “inactive; negative”.

What about the mutagenic call (Test System: E. COLI, Strain/Indicator: WP2 UVRA, Metabolic Activation: HAMSTER, LIVER, S-9, Method: STANDARD PLATE) of the same compound?
The mutagenic call was “inactive; negative”.

And the mutagenic call (Test System: E. COLI, Strain/Indicator: WP2 UVRA, Metabolic Activation: MOUSE, LIVER, S-9, AROCLOR 1254, Method: STANDARD PLATE)?
The mutagenic call was “inactive; negative”.

What about the mutagenic call (Test System: E. COLI, Strain/Indicator: WP2 UVRA, Metabolic Activation: MOUSE, LIVER, S-9, Method: STANDARD PLATE) of the same compound?
The mutagenic call was “inactive; negative”.

And the mutagenic call (Test System: E. COLI, Strain/Indicator: WP2 UVRA, Metabolic Activation: NONE, Method: STANDARD PLATE)?
The mutagenic call was “inactive; negative”.

What about the mutagenic call (Test System: E. COLI, Strain/Indicator: WP2 UVRA, Metabolic Activation: RAT, LIVER, S-9, AROCLOR 1254, Method: STANDARD PLATE) of the same compound?
The mutagenic call was “inactive; negative”.

And the mutagenic call (Test System: E. COLI, Strain/Indicator: WP2 UVRA, Metabolic Activation: RAT, LIVER, S-9, Method: STANDARD PLATE)?
Its mutagenic call is “inactive; negative”.

What about the mutagenic call (Test System: MOUSE LYMPHOMA, Strain/Indicator: L5178Y (TK+/TK-), Metabolic Activation: NONE, Method: SUSPENSION/PLATE) of the same compound?
Its mutagenic call is “inactive; negative”.

What about the mutagenic call (Test System: MOUSE LYMPHOMA, Strain/Indicator: L5178Y (TK+/TK-), Metabolic Activation: RAT, LIVER, S-9, AROCLOR 1254, Method: SUSPENSION/PLATE) of the same compound?
The mutagenic call was “inactive; negative”.

And the mutagenic call (Test System: MOUSE LYMPHOMA, Strain/Indicator: L5178Y (TK+/TK-), Metabolic Activation: RAT, LIVER, S-9, Method: SUSPENSION/PLATE)?
The mutagenic call was “inactive; negative”.

How did the mutagenic call (End Point: IN VITRO CHROMOSOMAL ABERRATIONS, Test System: CHINESE HAMSTER LUNG (CHL) CELLS, Metabolic Activation: NONE) turn out when `O=[N+]([O-])c1cc([N+](=O)[O-])c2ccc3cccc4ccc1c2c43` was run?
Its mutagenic call is “active; positive”.

What about the mutagenic call (End Point: IN VITRO CHROMOSOMAL ABERRATIONS, Test System: CHINESE HAMSTER LUNG (CHL) CELLS, Metabolic Activation: RAT, LIVER, S-9, KC-400) of the same compound?
Its mutagenic call is “active; positive”.

And the mutagenic call (Test System: AMES SALMONELLA TYPHIMURIUM, Strain/Indicator: TA98 (1,8-DNP6), Metabolic Activation: NONE, Method: STANDARD PLATE)?
The mutagenic call was “active; positive”.

And the mutagenic call (Test System: AMES SALMONELLA TYPHIMURIUM, Strain/Indicator: TA98 (NR), Metabolic Activation: NONE, Method: STANDARD PLATE)?
The mutagenic call was “active; positive”.

What about the mutagenic call [1] of the same compound?
The mutagenic call was “active; positive”.

What about the mutagenic call [2] of the same compound?
The mutagenic call was “active; positive”.

And the mutagenic call (Test System: AMES SALMONELLA TYPHIMURIUM, Strain/Indicator: TA98, Metabolic Activation: RAT, LIVER, S-9, PCB (10%), Method: PREINCUBATION)?
Its mutagenic call is “inactive; negative”.

And the mutagenic call [3]?
The mutagenic call was “active; positive”.

And the mutagenic call (Test System: AMES SALMONELLA TYPHIMURIUM, Strain/Indicator: TA100, Metabolic Activation: RAT, LIVER, CYTOSOL, AROCLOR 1254, Method: STANDARD PLATE)?
Its mutagenic call is “active; positive”.

What about the mutagenic call (Test System: AMES SALMONELLA TYPHIMURIUM, Strain/Indicator: TA100, Metabolic Activation: RAT, LIVER, CYTOSOL, Method: STANDARD PLATE) of the same compound?
Its mutagenic call is “active; positive”.

What about the mutagenic call (Test System: AMES SALMONELLA TYPHIMURIUM, Strain/Indicator: TA100, Metabolic Activation: RAT, LIVER, MICROSOMES, AROCLOR 1254, Method: STANDARD PLATE) of the same compound?
The mutagenic call was “active; positive”.

What about the mutagenic call (Test System: AMES SALMONELLA TYPHIMURIUM, Strain/Indicator: TA100, Metabolic Activation: RAT, LIVER, MICROSOMES, Method: STANDARD PLATE) of the same compound?
The mutagenic call was “active; positive”.

What about the mutagenic call (Test System: AMES SALMONELLA TYPHIMURIUM, Strain/Indicator: TA100, Metabolic Activation: RAT, LIVER, S-9, AROCLOR 1254, Method: STANDARD PLATE) of the same compound?
The mutagenic call was “inactive; negative”.

And the mutagenic call (Test System: AMES SALMONELLA TYPHIMURIUM, Strain/Indicator: TA100, Metabolic Activation: RAT, LIVER, S-9, Method: STANDARD PLATE)?
The mutagenic call was “active; positive”.

What about the mutagenic call (Test System: AMES SALMONELLA TYPHIMURIUM, Strain/Indicator: TA7001, Metabolic Activation: NONE, Method: PREINCUBATION) of the same compound?
The mutagenic call was “active; positive”.

And the mutagenic call (Test System: AMES SALMONELLA TYPHIMURIUM, Strain/Indicator: TA7002, Metabolic Activation: NONE, Method: PREINCUBATION)?
Its mutagenic call is “active; positive”.

And the mutagenic call (Test System: AMES SALMONELLA TYPHIMURIUM, Strain/Indicator: TA7003, Metabolic Activation: NONE, Method: PREINCUBATION)?
Its mutagenic call is “active; positive”.

What about the mutagenic call (Test System: AMES SALMONELLA TYPHIMURIUM, Strain/Indicator: TA7004, Metabolic Activation: NONE, Method: PREINCUBATION) of the same compound?
Its mutagenic call is “active; positive”.

And the mutagenic call (Test System: AMES SALMONELLA TYPHIMURIUM, Strain/Indicator: TA7005, Metabolic Activation: NONE, Method: PREINCUBATION)?
Its mutagenic call is “active; positive”.

And the mutagenic call (Test System: AMES SALMONELLA TYPHIMURIUM, Strain/Indicator: TA7006, Metabolic Activation: NONE, Method: PREINCUBATION)?
Its mutagenic call is “active; positive”.

And the mutagenic call (Test System: UDS HUMAN HEPATOMA CELLS, Strain/Indicator: HEPG2/THY INCORP, Metabolic Activation: NONE)?
Its mutagenic call is “inactive; negative”.

How did the mutagenic call [2] turn out when `COc1cccc(NC(=O)c2csc([N+](=O)[O-])c2)c1` was run?
The mutagenic call was “active; positive”.

What about the mutagenic call [3] of the same compound?
The mutagenic call was “active; positive”.

From PubChem BioAssay AID1259407 (Chemical Carcinogenesis Research Information System (CCRIS), 2018)
